Results: article PMC10510511, “Dose–Response Activity-Based DNA-Encoded Library Screening” (ACS Medicinal Chemistry Letters, 2023)
Entries after “also recorded” stand apart in the source; their conditions may differ.

Key:
factor Xa (FXa) [1] = molecular target: T1, factor Xa (FXa) (Homo sapiens, UniProt P00742); assay: Biochemical assay for FXa hit validation (fluorogenic 5-FAM/QXL-520 substrate, microplate); settings: for Maximum inhibition (%) / IC50: FXa; for IC50: 30 min preincubation, 25 °C, 4 parameter logistic fit
T1 construct: purchased R&D Systems, Minneapolis, MN
T1 sequence (P00742 235-488 limits assumed): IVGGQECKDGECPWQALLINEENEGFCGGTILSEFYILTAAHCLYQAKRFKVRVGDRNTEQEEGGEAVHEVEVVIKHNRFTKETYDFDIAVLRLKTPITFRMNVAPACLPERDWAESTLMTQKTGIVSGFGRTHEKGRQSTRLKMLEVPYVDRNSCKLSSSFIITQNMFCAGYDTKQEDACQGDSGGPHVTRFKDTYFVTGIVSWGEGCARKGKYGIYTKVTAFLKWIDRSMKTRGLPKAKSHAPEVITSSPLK
T1 sequence (P00742 41-179 partner limits assumed): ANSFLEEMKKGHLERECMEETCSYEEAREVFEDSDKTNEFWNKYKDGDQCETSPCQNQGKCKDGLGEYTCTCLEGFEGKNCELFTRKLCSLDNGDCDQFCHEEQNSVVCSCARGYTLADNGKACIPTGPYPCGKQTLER
Experimental: Biochemical Assay for FXa Hit Validation […]
plate assay buffer). Compound dilutions (2.5 µL) were added to FXa (90 nM, 5 µL) in 384-well black-bottom microplates (Corning Scientific, Corning, NY) in triplicate and […]
(§1) incubated (30 min, 25 °C). […]
added and reaction progress was monitored immediately (λex = 483 nm,λem = 530 nm, 25 °C, CLARIOStar Plus, BMG LABTECH, Ortenberg, Germany). The percent activity was taken as the slope of the fluorescence increase over time (1–10 min) relative to that of a vehicle control. IC50 values were determined by fitting the data to a 4 parameter logistic model using nonlinear regression. […]

factor Xa (FXa) [2] = molecular target: T1, factor Xa (FXa); assay: FXa dose-response activity-based DEL screening in droplets, hit replicate count by sequencing; format: biochemical; settings: for k-class (30% UV): FXa screen at 30% UV intensity; for k-class (100% UV): FXa screen at 100% UV intensity
Experimental: FXa Library Screening in Droplets
DEL screening for FXa inhibitors was performed in droplets as previously described,4,8 with modifications. After ligating the closing primer, the library was prepared for droplet screening by exchanging into assay buffer, filtering through a 20 µm Celtrics filter, filter-ing through a previously described microfluidic device,4 and counting a dilution with a hemocytometer to determine bead density. AQ1 input contained fluorogenic FXa peptide substrate (6 µM), internal standard 5(6)-TAMRA (2 µM), DEL beads (∼1500 beads/µL), and a PTFE-encapsulated magnet (to agitate beads periodically; 3 mm dia., V&P Scientific, Inc., San Diego, CA) in FXa droplet assay buffer. AQ2 contained FXa (3.8 ng/µL,∼90 nM) in FXa droplet assay buffer.
OIL2 and OIL3 were neat Novec™ 7500.
UV dosing was delivered through a custom fiber optic cable7 controlled through Labview software (National Instruments, Austin, TX). Slight modifications were made to the pre-viously described confocal LIF detection system and LabVIEW code. 3,4 Briefly, droplet […]
(§2) fluorescence emission was detected by photon counting PMTs (H7828, Hamamatsu, Mid-dlesex, NJ) using a custom two-channel (520 and 570 nm) confocal LIF microscope with […]
(§3) code written in house collected signal data and determines droplet sorting decisions. The […]
(§4) Instruments), and binned into packets of counts (∆t = 0.1 ms). Median-filter smoothing (window width = 3) was applied to the signal in real-time. Droplet signal regions were identified by the 570-nm channel signal (countsn> 200) and 520-nm channel signal maxima (max = countsn−1 when countsn< countsn−1).
A dynamic sorting threshold was calculated in real-time to identify “hit droplets” with reduced 520-nm channel fluorescence. The dynamic threshold was calculated as µ - 4.5σ, where µ andσ were the mean and standard deviation of the last 1000 droplets’ fluorescence values, respectively. Hit droplets were excluded from the fluorescence values used to calculate population mean and standard deviation. […]
(§5) DNA sequence pattern matching, aggregation by bead barcode, and unique molecular identifier (UMI) filtering were previously described. 3–5 Sequences with a UMI count≤ 5 were discarded. UV doses associated with hit sequences were filtered using the sequencing barcode (Table S5) introduced during library amplification. Of the remaining sequences, compound replicates (k class) were determined by taking the sum of the sequences having the same synthesis encoding region but distinct bead barcodes.

autotaxin (ATX) [3] = molecular target: T2, autotaxin (ATX) (Homo sapiens, UniProt Q13822); assay: ATX dose-response activity-based DEL screening in droplets, hit replicate count by sequencing; format: biochemical; settings: for k-class (20% UV): ATX screen at 20% UV intensity; for k-class (100% UV): ATX screen at 100% UV intensity
T2 construct: purchased Echelon Biosciences, Salt Lake City, UT
From the text: as §2, §3, §4
A dynamic sorting threshold was calculated in real-time to identify “hit droplets” with reduced 520-nm channel fluorescence. The dynamic threshold was calculated as µ - 4.5σ, where µ andσ were the mean and standard deviation of the last 1000 droplets’ fluorescence values, respectively. Hit droplets were excluded from the fluorescence values used to calculate population mean and standard deviation. When a hit droplet was detected (droplet fluorescence< µ – 4.5σ counts), LabVIEW output a TTL pulse from the DAQ […]
triggering a square wave pulse output (0–7.5 V, 10 kHz, 300 cycles) that was amplified […]
NY) and conducted through luer-lok needle-fitted and microbore tygon tubing filled with liquid metal (gallium:indium:tin alloy 62:22:16 (w%), Alfa Aeser) into a microfabricated […]
ATX Library Screening in Droplets
The ATX droplet screening assay was performed similarly to the FXa assay, but with ATX assay reagents. This was a modification of previously described protocols.4 AQ1 input contained fluorogenic ATX substrate FS-3 9 (10 µM), internal standard 5(6)-TAMRA (5 µM), […]
excised, eluted (C&S buffer, 100 µL, 100 rpm, ON), and pooled for Illumina sequencing at the UCI genomics high throughput facility (MiSeq v2 Nano or MiSeq v2 Micro, paired end).
as §5, with “barcodes. […]” for “barcodes.”
(§6) 384-well black-bottom microplates (Corning Scientific, Corning, NY) in triplicate and […]
as §1

autotaxin (ATX) [4] = molecular target: T2, autotaxin (ATX); assay: Biochemical assay for ATX hit validation (FS-3 substrate, microplate); settings: for Maximum inhibition (%) / IC50: ATX; for IC50: relative IC50, 30 min preincubation, 25 °C, 4 parameter logistic fit
Experimental: as §6, §1
Biochemical Assay for ATX Hit Validation […]
plate assay buffer). Compound dilutions (2.5 µL) were added to ATX (100 nM, 5 µL) in 384-well black-bottom microplates (Corning Scientific, Corning, NY) in triplicate and incubated (30 min, 25 °C). FS-3 (20 µM, 2.5 µL) was added and reaction progress was monitored immediately (λex = 483 nm, λem = 530 nm, 25 °C, CLARIOStar Plus, BMG LABTECH). The percent activity was taken as the slope of the fluorescence increase over […]
time (1–10 min) relative to that of a vehicle control. IC50 values were determined by fitting the data to a 4 parameter logistic model using nonlinear regression. […]
Vmax = [S]KM(1 + [I]Ki ) + [S]. […]
v = Vmax(1 + [I]/Ki)[S]. (3)
Rearranging to express relative velocity (v/Vmax):
Vmax = [S](KM + [S])(1 + [I]/Ki). (4)

FXa = system: FXa; set-up: method as in PMID 16161994; settings: cited from earlier work

Compound	Maximum inhibition (%) (factor Xa (FXa) [1])	IC50 (factor Xa (FXa) [1])	k-class (30% UV) (factor Xa (FXa) [2])	k-class (100% UV) (factor Xa (FXa) [2])	FXa inhibition (in words) (factor Xa (FXa) [1]; at 100 μM)	k-class (20% UV) (autotaxin (ATX) [3])	k-class (100% UV) (autotaxin (ATX) [3])	ATX inhibition (in words) (autotaxin (ATX) [4])	Maximum inhibition (%) (autotaxin (ATX) [4])	IC50 (autotaxin (ATX) [4])	IC50 (FXa)
NC(=O)[C@@H](Cc1csc2ccccc12)NC(=O)c1ccc(N2CCCC2=O)cc1 [Hit 1a]	93%	4.2 ± 0.1 µM	14	4							
NC(=O)[C@@H](Cc1csc2ccccc12)NC(=O)c1ccc(N2CCOCC2)cc1 [Hit 1b]	85%	7.4 ± 0.3 µM	9	4							
NC(=O)[C@@H](Cc1c[nH]c2ccccc12)NC(=O)c1ccc(N2CCCC2=O)cc1 [Hit 2a]	95%	9 ± 0.3 µM	9	6							
NC(=O)[C@@H]1CCCN1C1CCN(C(=O)c2cn3cc(Cl)ccc3n2)CC1 [Hit 3a]	28%	> 300 µM	8	9	weakly inhibited FXa						
NC(=O)c1cccc(CNC(=O)c2ccc(Cl)s2)c1 [Hit 5a]	58%	19 ± 2 µM	10	8							
NC(=O)c1cccc(CNC(=O)c2csc(Cc3ccccc3)n2)c1 [Hit 12a]						4	8	least potent	94%	28 ± 14 µM	
NC(=O)c1cccc(CNC(=O)[C@@H]2C[C@H]2c2ccccc2)c1 [Hit 12b]						2	3	false positive; also recorded: did not inhibit ATX		> 300 µM	
Cc1cccn2cc(C(=O)NC3c4ccccc4CCc4cc(OCC(N)=O)ccc43)nc12 (stereo not drawn) [Hit 13a]						0	3		57%	6 ± 1 µM	
NC(=O)COc1ccc2c(c1)CCc1ccccc1C2NC(=O)c1ccc(Cl)o1 (stereo not drawn) [Hit 13b]						0	3		26%	6 ± 3 µM	
NC(=O)Cn1c(=O)n(C2CCN(C(=O)c3ccc(Cl)cc3C(F)(F)F)CC2)c2ccccc21 [Hit 16a]						6	4	inhibited ATX fully	91%	7 ± 2 µM	
NC(=O)Cn1c(=O)n(C2CCN(C(=O)c3cnn(CC4CCCCC4)c3)CC2)c2ccccc21 [Hit 16b]						4	2	inhibited ATX fully	96%	13 ± 2 µM	
NC(=O)c1ccc2c(c1)CCN(C(=O)c1cnn(CC3CCCCC3)c1)C2 [Hit 17a]						7	6	inhibited ATX fully	91%	1 ± 0.3 µM	
